From PubChem BioAssay (NCI)
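Step 1: Grow cells in 96-well plates. Step 2: Expose to compound for 48 hours at 5 concentrations. Step 3: Interpolate endpoints linearly; if unreached, use highest concentration. TGI: total growth inhibition.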 *1 amine or outer side, *2 acyl side, *3 side chain or, on linkers, in order; H or OH if unused. Where a SMILES comes first, the peptide text is derived from it. Bridges are numbered along the chain shown (N, C = ends). [ ]: non-standard residue; d: D form. The star is where a group is joined. ξ: configuration not given here. X34 = O=C(C(CCCCNO[*:3])N[*:1])[*:2]; Fmoc = O=C(OCC1c2ccccc2-c2ccccc21)*; ξLac(3-iPr) = CC(C)CC(O)C(=O)O; NMeV = CN[CH](C(=O)O)C(C)C; NMeA = CN[CH](C)C(=O)O; βAla = NCCC(=O)O

Key:
Experiment in all cases: NCI anticancer screen, dose series, 48 h
CAKI-1 renal = system: CAKI-1 renal
DU-145 prostate = system: DU-145 prostate
SN12C renal = system: SN12C renal
OVCAR-5 ovarian = system: OVCAR-5 ovarian
786-0 renal = system: 786-0 renal
ACHN renal = system: ACHN renal
HL-60(TB) leukemia = system: HL-60(TB) leukemia
LOX IMVI melanoma = system: LOX IMVI melanoma
HCT-15 colon = system: HCT-15 colon
SK-MEL-5 melanoma = system: SK-MEL-5 melanoma
IGROV1 ovarian = system: IGROV1 ovarian
RPMI-8226 leukemia = system: RPMI-8226 leukemia
RXF 393 renal = system: RXF 393 renal
SNB-19 CNS = system: SNB-19 CNS
OVCAR-4 ovarian = system: OVCAR-4 ovarian
PC-3 prostate = system: PC-3 prostate
UACC-62 melanoma = system: UACC-62 melanoma

| Structure (SMILES) | TGI (CAKI-1 renal) [µM] | TGI (DU-145 prostate) [µM] | TGI (SN12C renal) [µM] | TGI (OVCAR-5 ovarian) [µM] | TGI (786-0 renal) [µM] | TGI (ACHN renal) [µM] | TGI (HL-60(TB) leukemia) [µM] | TGI (LOX IMVI melanoma) [µM] | TGI (HCT-15 colon) [µM] | TGI (SK-MEL-5 melanoma) [µM] | TGI (IGROV1 ovarian) [µM] | TGI (RPMI-8226 leukemia) [µM] | TGI (RXF 393 renal) [µM] | TGI (SNB-19 CNS) [µM] | TGI (OVCAR-4 ovarian) [µM] | TGI (PC-3 prostate) [µM] | TGI (UACC-62 melanoma) [µM] |
| --- | --- | --- | --- | --- | --- | --- | --- | --- | --- | --- | --- | --- | --- | --- | --- | --- | --- |
| CCNC12CCC(C1)C(C)(C)C2=O (stereo unspecified) | > 100 | > 100 | > 100 | > 100 | > 100 | > 100 | > 100 | > 100 | > 100 | > 100 | > 100 | > 100 | > 100 | > 100 | > 100 | > 100 | > 100 |
| CC1(C)N=C(N)N=C(N)N1c1cccc(C(=O)Nc2ccc(S(=O)(=O)F)cc2)c1 | > 100 | > 100 | > 100 | > 100 | > 100 | > 100 | > 100 | > 100 | > 100 | > 100 | > 100 | > 100 | > 100 | > 100 | > 100 | > 100 | > 100 |
| O=C1OC(C2(O)OC(=O)c3ccccc32)c2ccccc21 (stereo unspecified) | > 100 | > 100 | > 100 | > 100 | > 100 | > 100 | > 100 | > 100 | > 100 | > 100 | > 100 | > 100 | > 100 | > 100 | > 100 | > 100 | > 100 |
| CCN(CCCl)c1cc(CN(C)C)cc(NC(=O)C23CCC(C(=O)Nc4cc(CN(C)C)cc(N(CC)CCCl)c4)(CC2)CC3)c1 | 23.2 | 11.9 | 2.39 | 10.4 | 1 | 9.22 | > 100 | 1.57 | 26.4 | 3.33 | 3.28 | > 100 | 3.18 | 3.3 | 5.12 | 1.95 | 4.18 |
| CC(NC(=O)c1ccc(NP(=O)(OCc2ccc([N+](=O)[O-])o2)N(C)CCCCCl)cc1)c1ccc(OCC2CCCCC2)c(C(N)=O)c1 (stereo unspecified) | > 100 | > 100 | 47.5 | 73.7 | 45.9 | > 100 | 50 | 27 | > 100 | 17 | 45.9 | 21.1 | 31 | 90.8 | 49.6 | > 100 | 26.4 |
| CC(=O)O[C@@]12CO[C@@H]1C[C@@H](O)[C@@]1(C)C(=O)[C@H](O)C3=C(C)[C@@H](OC(=O)[C@H](O)[C@@H](NC(=O)c4ccccc4)c4ccccc4)C[C@@](O)([C@@H](OC(=O)c4ccccc4)C12)C3(C)C (stereo partly specified) | > 100 | > 100 | > 100 | – | > 100 | 57 | > 39.9 | 41.9 | > 100 | – | > 100 | > 100 | 35.4 | > 100 | > 100 | > 100 | – |
| COc1ccc(C2=C(N)c3ncccc3C2=O)cc1 | > 100 | > 100 | > 100 | > 100 | > 100 | > 10 | > 100 | > 100 | > 100 | – | > 100 | > 100 | > 100 | > 100 | > 100 | > 100 | > 100 |
| O=C1/C(=C/c2ccc(Oc3ccccc3)cc2)N=C(c2ccccc2)N1c1ccc(S(=O)(=O)Nc2nccs2)cc1 | > 100 | > 100 | > 100 | > 100 | > 100 | > 100 | 34.9 | 70.5 | 70.1 | 49.8 | – | 32.3 | 93.4 | > 100 | > 100 | > 100 | > 100 |
| CCOC(=O)c1cc(Br)c(-c2cc(C)no2)[nH]1 | – | 73.8 | > 100 | > 100 | > 100 | > 100 | 83.6 | > 100 | > 100 | 47.5 | – | > 100 | > 100 | > 100 | 63 | > 100 | > 100 |
| COc1nc2c(c(=O)n1C)N=C(c1ccccc1)[C@H](C(CC(=O)c1ccccc1)c1ccccc1)C(c1ccccc1)N2 (stereo partly specified) | > 100 | > 100 | > 100 | > 100 | > 100 | > 100 | > 100 | > 100 | – | > 100 | > 100 | > 100 | > 100 | > 100 | > 100 | > 100 | > 100 |
| COc1cc2c(cc1OC)CC1c3cc(OC)c(OC)cc3CCN1CC2 (stereo unspecified) | > 100 | > 100 | > 100 | > 100 | > 100 | > 100 | > 100 | – | > 100 | > 100 | > 100 | > 100 | > 100 | 76.2 | > 100 | > 100 | > 100 |
| COc1cc2c(cc1O)C1(Cc3ccc4c(c3C1=O)OCO4)N(C)CC2 (stereo unspecified) | > 100 | > 100 | > 100 | > 100 | > 100 | > 100 | > 100 | – | > 100 | > 100 | > 100 | > 100 | > 100 | > 100 | > 100 | > 100 | > 100 |
| CCCCCCCCCCCCCCCCOP(=O)(O)OCC(NC(C)=O)C(=O)O (stereo unspecified) | > 100 | > 100 | > 100 | > 100 | > 100 | > 100 | > 100 | > 100 | 34.3 | > 100 | 62.2 | > 100 | 48.3 | 35.6 | 60.7 | 34.7 | – |
| CC1CN(c2cc3c(cc2F)c(=O)c(C(=O)O)cn3-c2ccc(F)cn2)CC(C)N1 (stereo unspecified) | > 100 | > 100 | > 100 | > 100 | > 100 | – | > 100 | > 100 | > 100 | – | > 100 | > 100 | > 100 | > 100 | > 100 | > 100 | > 100 |
| O=C1c2c(ccc3c2CCC3)CC12Cc1ccccc1C2 | 43.6 | > 100 | > 100 | > 100 | 91.5 | > 100 | 34.9 | 31 | > 100 | 24.3 | > 100 | 44.3 | 40.4 | > 100 | > 100 | > 100 | – |
| NC(=O)CNC(=O)C1CCCN1C(=O)C1CCCCNOC(=O)CCC(NC(=O)OCC2c3ccccc3-c3ccccc32)C(=O)NC(Cc2c[nH]c3ccccc23)C(=O)N1 (stereo unspecified) (Fmoc-EW[X34]PG-NH2; ester 1-3; configuration not given here) | – | > 100 | > 100 | > 100 | > 100 | > 100 | > 100 | > 100 | > 100 | > 100 | > 100 | > 100 | > 100 | > 100 | > 100 | > 100 | > 100 |
| O=C1C=CC(=O)c2c(O)c(Br)c(Br)c(O)c21 | – | 25.9 | 18.4 | 30.8 | 3.32 | 5.99 | 2.21 | – | 4.83 | 27.2 | 29.7 | 3.42 | 6.13 | 33.1 | 9.08 | 29.6 | 26.1 |
| O=C(O)CCC(N=NNc1ccc(-c2nc3ccccc3[nH]2)cc1)C(=O)O (stereo unspecified) | > 100 | > 100 | > 100 | > 100 | > 100 | > 100 | > 100 | > 100 | > 100 | > 100 | > 100 | > 100 | > 100 | > 100 | > 100 | > 100 | – |
| COC(=O)C1Cc2ccc3c(c2C1=O)CCCC3 (stereo unspecified) | > 100 | > 100 | > 100 | > 100 | > 100 | > 100 | > 100 | > 100 | > 100 | > 100 | > 100 | > 100 | – | > 100 | > 100 | > 100 | > 100 |
| CCC(C)C1NC(=O)C2CCCN2C(=O)C(CC(C)C)OC(=O)CCNC(=O)C(C)N(C)C(=O)C(C(C)C)N(C)C1=O (stereo unspecified) (cyclo([ξLac(3-iPr)]PI[NMeV][NMeA][βAla]); configuration not given here) | > 86.2 | > 89.2 | > 100 | > 100 | 17.6 | > 83.4 | 18.2 | – | > 100 | 3.27 | > 100 | 8.15 | 98 | > 100 | > 100 | > 100 | 5.06 |
| OC(c1ccc2c(c1)OCO2)c1ccc2c(c1)OCO2 | > 100 | > 100 | > 100 | > 100 | > 100 | > 100 | > 100 | > 100 | > 100 | > 100 | > 100 | > 100 | – | > 100 | > 100 | > 100 | > 100 |
| O=c1c(-c2ccccc2F)coc2cc(F)ccc12 | > 100 | > 100 | > 100 | > 100 | > 100 | > 100 | > 100 | > 100 | > 100 | > 100 | > 100 | – | > 100 | > 100 | > 100 | > 100 | > 100 |
| O=C1c2ccccc2C2C1C(c1ccccc1)C1(Cc3ccccc3C1=O)C2c1ccccc1 (stereo unspecified) | – | > 100 | > 100 | > 100 | > 100 | > 100 | 35.6 | > 100 | > 100 | > 100 | > 100 | – | > 100 | > 100 | > 100 | > 100 | > 100 |
| COc1cc(/C=C\c2nnc(/C=C\c3ccc(O)c(OC)c3)s2)ccc1O | 44.2 | 8.26 | > 92.8 | 48.8 | > 100 | 22.3 | 5.45 | 22.4 | 18.1 | 3.42 | > 36.6 | – | 4.75 | > 82.1 | 19.9 | > 64.3 | 18.8 |
| CN(C(=O)C1=CCC2(CC1)OCCO2)c1ccccc1I | > 100 | > 100 | > 100 | > 100 | > 100 | > 100 | > 100 | > 100 | > 100 | > 100 | > 100 | > 100 | – | > 100 | > 100 | > 100 | > 100 |
| CSC1=NNC(SC)=NN1 | 0.311 | 0.345 | 0.322 | 0.324 | 0.328 | 0.304 | 0.407 | 0.287 | 0.307 | 0.354 | 0.302 | > 1 | – | 0.336 | 0.309 | 0.303 | 0.29 |
| CC(=O)OC[C@@]12Cc3ccc(C)c(O)c3[C@]1(C)[C@@H](OC(C)=O)[C@]1(O)[C@H]([C@@H](OC(=O)c3ccccc3)[C@@H](C)[C@H]1OC(C)=O)[C@H]2OC(C)=O | > 50 | > 50 | > 50 | > 50 | > 50 | > 50 | > 50 | > 50 | > 50 | > 50 | > 50 | – | > 50 | > 50 | > 50 | > 50 | > 50 |
